Legend:
[1] = Pharmacokinetic assay in mouse; format: in vivo, ICR mice; details: for pharmacokinetic properties in mouse compared with Reference compound 1 and Reference compound 2 (in words): mouse assay, vs Reference compounds 1 and 2; for AUC(0-t) / Cmax / Tmax / half-life: mouse, plasma, po, male ICR mice, intragastric administration, 10 mg/kg; for half-life: read-out: T½ (converted)
Description: For a mouse pharmacokinetic assay, male ICR mice (20 g to 25 g) were selected and fasted overnight. Three mice were intragastrically administered with 10 mg/kg of the corresponding compound. The blood of the mice was collected before the administration and at 15 min, 30 min, 1 h, 2 h, 4 h, 8 h, and 24 h after the administration. The blood samples were centrifuged at 4° C. for 6 minutes at 6,800 g, plasma was collected and stored at −80° C.
The supernatant was mixed with 3 times the amount of water, and an appropriate amount of the mixed solution was taken for LC-MS/MS analysis. The primary pharmacokinetic parameters were analyzed by WinNonlin 7.0 software non-atrioventricular model.

[2] = test system: rat taste; experiment: Taste test in rat (water vs 0.3 mM aqueous quinine solution intake); format: in vivo, SD rats; details: for Water/aqueous quinine solution (ratio of water intake to aqueous quinine solution intake): SD rats, 30 mg/kg i.p, 0.3 mM quinine, 15 min supply half an hour after administration; for interference on rat taste compared with Reference compound 1 (in words): vs positive reference compound
Description: SD rats were administered with the corresponding compound after 3 days of overnight water prohibition training. Each rat was supplied with 1 bottle of water and 1 bottle of 0.3 mM aqueous quinine solution half an hour after the administration. After 15 min of water supply, the bottles were removed. The intake amount of water and the intake amount of the 0.3 mM aqueous quinine solution were measured, respectively. The taste influence of the compound on SD rats was evaluated based on the difference between the intake amount of water and the intake amount of the aqueous quinine solution.

[3] = biological target: T1, hP2X3 receptor (Homo sapiens, UniProt P56373); experiment: Antagonistic activity against hP2X3 receptor by FLIPR calcium flow assay; format: cell-based; details: for IC50: human cells stably transfected with hP2X3, agonist α,β-meATP 400 nM; for antagonistic activity against hP2X3 receptor compared with Reference compound 1 (in words): vs Reference compound 1
T1 construct: expressed in transfected cells
T1 sequence (P56373 1-397): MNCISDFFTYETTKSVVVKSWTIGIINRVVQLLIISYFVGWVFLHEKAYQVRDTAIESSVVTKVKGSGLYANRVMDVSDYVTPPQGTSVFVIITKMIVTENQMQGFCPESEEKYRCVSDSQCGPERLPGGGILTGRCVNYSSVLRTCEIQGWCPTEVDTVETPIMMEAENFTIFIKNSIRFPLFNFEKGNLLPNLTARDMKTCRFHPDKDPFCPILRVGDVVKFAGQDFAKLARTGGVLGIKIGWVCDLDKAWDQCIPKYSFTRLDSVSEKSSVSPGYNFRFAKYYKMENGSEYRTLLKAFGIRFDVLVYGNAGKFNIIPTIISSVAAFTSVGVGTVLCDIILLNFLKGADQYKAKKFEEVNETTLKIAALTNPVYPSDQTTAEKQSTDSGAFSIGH
Description: The antagonistic activity of hP2X3 antagonists against hP2X3 receptor was evaluated by means of FLIPR Calcium 4 Assay Kit (Molecular Devices, R8141) and FLIPR TETRA instrument (Molecular Devices, 0296) by detecting calcium flow signals. 24h before the experiment, human cells, which had been stably transfected with hP2X3 receptors, were plated on a 384-well plate at 2×10^5 cells/mL, with 50 μL of cell suspension per well, and the plate was cultured in an incubator (37° C., 5% CO2) for 16 h to 24 h. The test compound solution (20 to 50 mM DMSO stock solution) with a concentration of 180 times the required concentration was prepared using DMSO. The stock solution was added to the 384-well plate at 500 nL per well, supplemented with 30 μL of FLIPR Assay buffer (1×HBSS+2 mM CaCl2 20 mM HEPES containing 1.26 mM Ca^2+). The 384-well plate was shaken for 20 to 40 min to mix evenly. An agonist (α, β-meATP) with a concentration of 3 times the required concentration (required final concentration was 400 nM) was prepared with FLIPR Assay buffer, and was added to another 384-well plate at 45 μL per well. The culture plate, on which the cells were plated one day ago, was taken, the cell supernatant was sucked and discarded, each well was added with 30 μL of Dye (FLIPR® Calcium 4 Assay Kit, diluted with FLIPR buffer), and then the plate was incubated for 1h. 15 μL of compound was added to each well of cells (using FLIPR sample injector). After 15 minutes, 22.5 μL of the agonist was added to each well, and the fluorescence signal (exciting light wavelength ranging from 470 nm to 495 nm, and emission wavelength ranging from 515 nm to 575 nm) was detect. […] An inhibition effect curve of the compound was fitted on the software GraphpadPrism6, and the IC50 value was calculated.

[4] = Pharmacokinetic assay in canine; format: in vivo, Beagle dogs
Description: For a canine pharmacokinetic assay, male Beagle dogs (8 kg to 10 kg) were selected and fasted overnight. Three Beagle dogs were intragastrically administered with 5 mg/kg of the corresponding compound. Another 3 Beagle dogs were intravenously administered with 1 mg/kg of the corresponding compound. The blood of the dogs was collected before the administration and at 15 min, 30 min, 1 h, 2 h, 4 h, 8 h, and 24 h after the administration. The blood samples were centrifuged at 4° C. for 6 minutes at 8,000 r/min, plasma was collected and stored at −20° C. […] The supernatant was taken and mixed with 3 times the amount of water, and an appropriate amount of the mixed solution was taken for LC-MS/MS analysis. The primary pharmacokinetic parameters were analyzed by WinNonlin 7.0 software non-atrioventricular model.

[5] = test system: ATP/citric acid-stimulated cough in guinea pig; experiment: Efficacy test for ATP/citric acid-stimulated cough in guinea pig; format: in vivo; details: guinea pigs, nasal drops, 0.17 mg/kg to 1.5 mg/kg, ATP/citric acid stimulation
Description: Guinea pigs were adaptively fed for 3 days to 7 days before being grouped. When the body weight of the guinea pigs reached 300 g to 400 g, they were numbered and randomly grouped. Compounds or an excipient were administered to guinea pigs by nasal drops 0.25 hour to 24 hours before the start of the cough assessment. The administration dose of the test sample ranged from 0.17 mg/kg to 1.5 mg/kg. For the cough assessment, the guinea pigs were placed in a whole-body volume scan box for adaptation, and then provided with ATP nebulization, and a few minutes later, they were provided with citric acid nebulization. The cough times within 15 minutes and the cough latency were recorded from the beginning of citric acid nebulization.
(§1) The experimental data was statistically analyzed by one-way ANOVA to analyze and compare data of the various groups. The statistical analysis result p<0.05 was regarded as a significant difference. The t-test was employed for difference comparison between any two.

[6] = test system: histamine/citric acid-stimulated cough in guinea pig; experiment: Efficacy test for histamine/citric acid-stimulated cough in guinea pig; format: in vivo; details: guinea pigs, nasal drops, 0.17 mg/kg to 1.5 mg/kg, histamine/citric acid stimulation
Description: Guinea pigs were adaptively fed for 3 days to 7 days before being grouped. When the body weight of the guinea pigs reached 300 g to 400 g, they were numbered and randomly grouped.
Compounds or an excipient were administered to guinea pigs by nasal drops 0.25 hour to 24 hours before the start of the cough assessment. The administration dose of the test sample ranged from 0.17 mg/kg to 1.5 mg/kg. For the cough assessment, the guinea pigs were placed in a whole-body volume scan box for adaptation, and then, they were provided with histamine nebulization and then citric acid nebulization. […]
as §1

[7] = Pharmacokinetic assay in rat; format: in vivo, SD rats
Description: For a rat pharmacokinetic assay, male SD rats (180 g to 240 g) were selected and fasted overnight. Three rats were intragastrically administered with 10 mg/kg of the corresponding compound. The blood of the rats was collected before the administration and at 15 min, 30 min, 1 h, 2 h, 4 h, 8 h, and 24 h after the administration. The blood samples were centrifuged at 4° C. for 6 minutes at 8,000 r/min, and plasma was collected and stored at −20° C. Plasma at each time point was taken, and added with 3 to 5 times the amount of an internal standard-containing acetonitrile solution to mix, and the mixture was vortex mixed for 1 minute, and centrifuged at 4° C. for 10 minutes at 13,000 r/min. The supernatant was taken and mixed with 3 times the amount of water, and an appropriate amount of the mixed solution was taken for LC-MS/MS analysis. The primary pharmacokinetic parameters were analyzed by WinNonlin 7.0 software non-atrioventricular model.

[8] = dog, plasma, po, male Beagle dogs, intragastric administration, 5 mg/kg
[9] = dog, plasma, male Beagle dogs, intravenous administration, 1 mg/kg
[10] = rat, plasma, po, male SD rats, intragastric administration, 10 mg/kg

AUC(0-t) [1] | Cmax [1] | Tmax [1] | half-life [1] | Water/aqueous quinine solution (ratio of water intake to aqueous quinine solution intake) [2] | IC50 [3] | antagonistic activity against hP2X3 receptor compared with Reference compound 1 (in words) [3] | Compound | pharmacokinetic properties in mouse compared with Reference compound 1 and Reference compound 2 (in words) [1] | interference on rat taste compared with Reference compound 1 (in words) [2] | Average cough times within 15 min [5] | Cough inhibition rate vs. solvent [5] | Average cough times within 15 min [6] | Cough inhibition rate vs. solvent [6] | further results
13800 ng·h/mL | 2950 ng/mL | 1 h | 2.35 h | 22.9 | 0.048 µM | better antagonistic activity | Cc1cnc(-c2cc(O[C@H](C)[C@@H](C)O)cc(C(=O)N[C@H](C)c3cnc(C(F)(F)F)nc3)c2F)s1 [Compound I-30, 2-fluoro-5-(((2R, 3R)-3-hydroxybutan-2-yl)oxy)-3-(5-methylthiazol-2-yl)-N—((R)-1-(2-(trifluoromethyl)pyrimidin-5-yl)ethyl)benzamide] | significantly improved pharmacokinetic properties | significantly less interference on rat taste | 7.1 | 64.1% | 9.8 | 63.2% | half-life (in words) ([4]; canine): long half-life; clearance rate (in words) ([4]; canine, intravenous administration): low clearance rate; exposure (in words) ([4]; canine, oral and intravenous administrations): high exposure; pharmacokinetic characteristics compared with the reference compound (in words) ([4]; canine, vs reference compound): better pharmacokinetic characteristics; AUC(0-t) [4, 8]: 12600 ng·h/mL; Cmax [4, 8]: 1030 ng/mL; Tmax [4, 8]: 1 h; half-life [4, 8]: 13.4 h; AUC(0-t) [4, 9]: 2820 ng·h/mL; clearance [4, 9]: 4.33 mL/min/kg; half-life [4, 9]: 13 h; Vd ([4]; dog, plasma, male Beagle dogs, intravenous administration, 1 mg/kg, read-out: Vz): 4.88 L/kg
12100 ng·h/mL | 1550 ng/mL | 2 h | 2.3 h | 18.2 | 0.083 µM | better antagonistic activity | Cc1cnc(-c2cc(O[C@@H]3CCOC3)cc(C(=O)N[C@H](C)c3cnc(C(F)(F)F)nc3)c2F)s1 [Compound I-1, 2-fluoro-3-(5-methylthiazol-2-yl)-5-(((R)-tetrahydrofuran-3-yl)oxy)-N—((R)-1-(2-(trifluoromethyl)pyrimidin-5-yl)ethyl)benzamide] | significantly improved pharmacokinetic properties | significantly less interference on rat taste | 6.5 | 67.2% | 10.8 | 59.4% | pharmacokinetic properties in rat compared with reference compound 1 (in words) ([7]; rat model, vs reference compound 1): improved to certain extent; AUC(0-t) [7, 10]: 5940 ng·h/mL; Cmax [7, 10]: 569 ng/mL; Tmax [7, 10]: 4 h; half-life ([7]; rat, plasma, po, male SD rats, intragastric administration, 10 mg/kg, read-out: T½ (converted)): 3.61 h

— patent US20230227445A1, “BENZAMIDE COMPOUND AND USE THEREOF” (HUMANWELL HEALTHCARE (GROUP) CO., LTD., priority 2020, published 2023)
